Measured values from ChEMBL document CHEMBL3507680, “University of Dundee, Gates Library screen for HepG2 cell viability”.

Test: Human HepG2 cell viability assay in 384 well format
Type: toxicity, cell-based
Design: dose 125 nL, time 70.5 hour; cytotoxicity at 70.5 h: concentration not given beside the values
Conditions: HepG2 cells, read-out: Inhibition

Compound	cytotoxicity at 70.5 h [%]
COCC1CC2(CCN(C(=O)c3occc3C)CC2)CN1C(C)C (stereo not drawn)	20.9
O=S1(=O)[C@@H](c2ccccc2)[C@H](CO)CN1c1ccccc1	-4.62
COc1ccccc1C(O)CNC(=O)NCc1cccnc1OC (stereo not drawn)	6.04
CN1CCCc2cc(-c3cncn3CCNC3CCS(=O)(=O)C3)ccc21 (stereo not drawn)	-4.36
O=S(=O)(C1CC1)N1CCO[C@H]2[C@H](Oc3cccnc3)CC[C@@H]21	-4.91
CC1CCCN(C(=O)CCc2cccnc2)C1 (stereo not drawn)	-3.28
Cn1cc(CN2CCOCC3(CCN(C4CCOCC4)C3)C2)cn1 (stereo not drawn)	6.49
COCCN1CCCC2(CCN(c3ncnc(C)c3C)C2)C1=O (stereo not drawn)	15.5
COCC1N(C(=O)c2ccco2)[C@H]2CC[C@]1(O)CC2 (stereo partly drawn)	-2.24
COc1ccc(F)cc1CSCC(=O)N(CCC#N)CCC#N	-3.2
CCN1CCc2[nH]cnc2C12CCN(C(=O)CCCn1cncn1)CC2	-1.47
COc1ccc(NC(=O)C2CCOC2)c(N2CCN(C(C)=O)CC2)n1 (stereo not drawn)	4.61
OCc1cc2ccccc2nc1NC1CC=CC1	-5.4
O=C(Cc1cccs1)N1C[C@@H]2OCCN(CC3CCCC3)[C@@H]2C1	-3.16
CCN(CC1CCOC1)C(=O)Nc1ccc(OC)nc1 (stereo not drawn)	24.3
O=C1CCCN1CCN1CCCC(c2ccn[nH]2)C1 (stereo not drawn)	27.7
COCCN(C(=O)c1ccoc1C)c1ccc(C#N)cc1	-4.2
CSCC[C@H](NC(C)=O)c1nc(CCc2ccccc2)n[nH]1	-3.53
COc1ccc(CN(C)C(=O)CCC(=O)c2cccs2)c(OC)c1OC	-3.38
OC(CN1CCN(Cc2cc(F)cc(F)c2)CC1)C1CC1 (stereo not drawn)	28.5
CC(=O)N1CCCN(C(=O)c2cnn(C(C)(C)C)c2C)CC1	-10.1
Cn1cc(CCNC(=O)c2cc3ccccc3nc2N2CCCC2)cn1	3.18
CCCN1CCC(CC(=O)N2CCC(C(O)c3nccn3C)CC2)CC1 (stereo not drawn)	-11.6

Compound	cytotoxicity at 70.5 h [%]
Cc1nc[nH]c1CN1CCn2nc(CN3Cc4ccccc4C3)cc2C1	-7.32
c1cc(CN2CCC(Cc3noc(C4CC4)n3)CC2)c2c(c1)OCO2	0.325
Fc1ccccc1C1(CNC2CCOC3(CCOCC3)C2)CCCC1 (stereo not drawn)	-9.34
O=C(Cc1ccsc1)N1C[C@@H]2COC[C@]2(COc2cccnc2)C1	-6.1
Cn1cc(C2CCCN2C(=O)COCCc2ccccc2)cn1 (stereo not drawn)	-8.67
CCc1nc(CN2CCCC(Nc3ncnc4ccsc34)C2)no1 (stereo not drawn)	-8.27
Cn1cc(-c2nnn3c2COC(CNCc2cccnc2)C3)cn1 (stereo not drawn)	18.5
COCc1ccc(C(=O)N2CCCN(Cc3cscn3)CC2)cc1	-6.01
COCCN1CCC(Cc2cnc(-c3ccccc3C(=O)O)cn2)CC1	8.51
COc1ccc(C(=O)N2CCN(CCO)CC2)c(F)c1	-4.32
O=c1[nH]c(CN(Cc2ccco2)C2CCCC2)nc2ccccc12	5.19
CCCc1cc(CNC2CCN(c3nc4ccccc4s3)CC2)on1	-6.6
CCCS(=O)(=O)N1CCOC2(CCCN(c3ncc(F)cn3)C2)C1 (stereo not drawn)	-13.3
CCc1cc(N[C@H]2CC[C@@H](N)CC2)n2nc(C)c(C)c2n1	-7.71
COCCC(=O)N[C@H]1CC[C@H](Nc2nccc(-c3ccncc3)n2)C1	-6.41
O=C(Nc1ccc2scnc2c1)N1CCN([C@H]2CCCC[C@@H]2O)CC1	-13.6
c1ccc(CN2CCOC3(CCN(c4ncccn4)CC3)C2)nc1	12
COc1coc(CN2CCCC(CCc3ccc(F)c(F)c3)C2)cc1=O (stereo not drawn)	15.5
Clc1ccccc1-c1nc(CNC2CCc3ncnn3C2)co1 (stereo not drawn)	-2.04
Cc1ccc(C2(O)CCN(C(=O)c3cccc(S(C)(=O)=O)c3)CC2)nc1	-4.42
Cn1cnnc1CNC(=O)Nc1ccc(OC2CCC2)c(F)c1	-4.19
COCC1c2nnn(CC3CC3)c2CCN1Cc1ccncc1 (stereo not drawn)	-8.11
Cc1cc(N2CCCC2)c(C#N)c(C)n1	17.6

Compound	cytotoxicity at 70.5 h [%]
CCOCc1cncc2c1CCN(C(=O)c1cccc(C#N)c1)C2	-1.85
O=C(NCCCC(=O)N1Cc2ccccc2C1)NCc1nccs1	-5.34
c1cnc(NC2COC3(CCN(Cc4cccs4)CC3)C2)nc1 (stereo not drawn)	-97
CN(C)c1ncc(-c2cc(C(=O)NCCC#N)n(CC3CC3)c2)cn1	-12.9
CCCn1cc(C(=O)NC(CC(=O)O)c2ccco2)c(C)n1 (stereo not drawn)	-8.82
NC(=O)Cn1c(CO)cnc1SCC(=O)NCc1ccccc1Cl	15.7
Cc1cnc(CN2CCCC(c3cc(C)[nH]n3)C2)cn1 (stereo not drawn)	15.7
O=C1[C@@H]2CN(c3ncc(Cl)cc3F)C[C@]2(C(=O)O)CN1CC1CC1	-5.98
CCOC(=O)C1(Cc2cccc(OC)c2)CCN(Cc2ccon2)CC1	-11.6
CCCc1cc(C(=O)N2C[C@H](O)[C@@H](N3CCCC3)C2)ccn1	16.4
Cc1ccc(OCCC(=O)NC2CCc3nccn3C2)cc1 (stereo not drawn)	0.164
CC(C)n1ccnc1CN1CCCN(C(=O)c2cscn2)CC1	-2.53
COc1ccc(C2CN(c3ncccn3)CCN2C(C)=O)cc1 (stereo not drawn)	-5.51
Cc1ccc(CNC(=O)c2ccc(=O)n(C)n2)c(OCC2CC2)c1	-4.46
Cc1ccccc1CN(CCN(C)C)C(=O)c1ccc2nccn2c1	0.498
Cn1nc2c(cc1=O)CN(CC(=O)Nc1cc(C(C)(C)C)no1)CC2	13.4
c1nc(N2CCOC(Cn3cncn3)C2)c2sccc2n1 (stereo not drawn)	29
CC(O)CN1CCN(Cc2csc(-c3ncccn3)n2)CC1 (stereo not drawn)	5.33
Cc1cc2nc(C(C)C)cc(N3CCN(S(N)(=O)=O)CC3)n2n1	-3.4
O=C(N[C@@H]1CCN(c2nc3ccccc3o2)C[C@H]1O)c1cnccn1	-9.1
CSc1ccc(C2SCC(=O)Nc3c2c(=O)[nH]n3C2CCOCC2)cc1 (stereo not drawn)	-23.9
Cn1cc(CNc2ccc(CCO)cc2)c(-c2ccncc2)n1	21.4
COc1ccccc1-n1nc(-c2ccco2)n(CC(=O)NC(C)C)c1=O	-6.38

Compound	cytotoxicity at 70.5 h [%]
COCC(=O)Nc1ccc(-c2noc([C@@H]3CCCN3C)n2)cn1	-7.79
CC(=O)N1CCN(C(=O)NCCc2ccc(Cl)s2)CC1	-4.33
CC(C(=O)NCc1ccc(N2CCNC(=O)C2)cc1)c1cccs1 (stereo not drawn)	-4.67
COCCOCC(=O)Nc1nc2c(OC)cc(F)cc2s1	-8.97
CS(=O)(=O)c1cccc(C(=O)NCC2Cc3ccccc3O2)c1 (stereo not drawn)	-5.79
COc1cc(I)c(Cl)cc1C(=O)N(C)CC(C)(C)O	21
CCCn1c(NC(=O)CNC(=O)OCC)nc2ccccc21	-8.2
Cc1cccc(CN2CCn3c(COc4ncccn4)nnc3C2)n1	4.18
O=C(Cc1cccc(O)c1)N1CCC2(CC1)c1ccccc1CC2O (stereo not drawn)	-11.7
CN(CC(=O)Nc1cccc(F)c1)Cc1nc(N)nc(N(C)C)n1	1.01
C/C=C(\C)CN1C[C@@H](NC(=O)c2ccc(O)c(Cl)c2)C[C@H]1C(=O)NCC	-11
CCc1nn(-c2cc(Oc3cc(C)ccc3C)ncn2)c(N)c1C#N	-1.76
O=C(CN1CCCC1)N1CCCC(CNS(=O)(=O)Cc2ccccc2)C1 (stereo not drawn)	22.2
CCS(=O)(=O)N1CCCC2(CCCC(=O)N2C)C1 (stereo not drawn)	-9.96
CCCn1nccc1-c1cc(C2CCN(C(C)=O)CC2)ccn1	-8.34
CN(C)C(=O)Cn1cc(C(=O)NCCc2cccc(Cl)c2Cl)nn1	2.52
CC(C(=O)N1CCCN(Cc2ccc(C#N)cc2)CC1)n1cncn1 (stereo not drawn)	-1.82
N#Cc1ccc(OCC(O)CN2CCc3cncnc3C2)cc1 (stereo not drawn)	2.9
Cc1nc(N(C)C)nc(C)c1NS(=O)(=O)c1ccccc1Cl	-8.77
O=C1CCCN1CCC1CCN(C2CCCNC2)CC1 (stereo not drawn)	-1.85
CC(C(=O)NC(C)(C)C)N1CCC(C(=O)Nc2cnccn2)CC1 (stereo not drawn)	-8.75
c1ccc(Cc2nc(CNCCn3cccn3)cs2)cc1	1.06
O=C(c1ncccc1O)N1CCc2c(nc(-c3ccncc3)[nH]c2=O)C1	9.03

Compound	cytotoxicity at 70.5 h [%]
Cc1cc(C)c(CNC(=O)NCC2CCCOC2)c(=O)[nH]1 (stereo not drawn)	-11.1
COCCN(C)C(C(=O)O)c1ccc(C)c(C)c1 (stereo not drawn)	0.276
Cc1cc(C)cc(C(=O)NCc2ncnn2C)c1	-5.75
CC(C)NC(=O)CSc1nc2c(cnn2CCO)c(=O)[nH]1	26.7
O=C(c1ccc2c(c1)CCC2)N1CCn2ncnc2C1	3.48
O=C1C(N2CCN(c3ccccc3Cl)CC2)CCN1C1CCOCC1 (stereo not drawn)	-5.64
N#CC1(C(=O)N2CCC(Nc3cccnn3)CC2)CCCCC1	0.814
c1ccc(N2CC[C@H](OCC3CC3)[C@@H]2Cc2cccnc2)nc1	-3.44
CS(=O)(=O)NCc1cnc2n1CCN(Cc1ccccn1)CC2	-1.27
CC1CCCCN1S(=O)(=O)NCc1cccnc1OC1CCCC1 (stereo not drawn)	-2.43
CN(CC(=O)NCC1CCCO1)Cc1nc2c(s1)CCCC2 (stereo not drawn)	25.9
CCN(Cc1cccc(C(=O)Nc2ncc(C)s2)c1)[C@H]1COC[C@@H]1O	-3.78
Cc1ccc(CNC2(Cc3cc(CO)on3)COC2)o1	-1.63
C[C@@H]1CN(C(=O)c2ccc[nH]2)C[C@]12CCN(CCN1CCCC1)C2=O	-5.21
CCn1cnnc1CNC(=O)N1CCN(c2nccs2)CC1	-3.76
Cc1nnsc1CN(C)C(=O)CCn1cnc2ccccc21	-9.98
O=C(Nc1cccnc1)[C@H]1CN(C2CCCC2)C[C@H]2OCC[C@@H]12	-2.64
CCc1ncc2c(n1)CN(Cc1cccc(OCC(N)=O)c1)CC2	1.32
CCOc1ccc(NC(=O)N2CCC(n3cncn3)CC2)cc1Cl	19.7
O=C(Nc1cccnc1)[C@H]1CN(Cc2ccco2)C[C@H]2OCC[C@@H]12	-7.09
O=c1cc(N2CCCC2)cnn1CC(F)F	-6.13
